# Results reported in US9926605B2, “Functional genomics screening platform for head and neck cancer” (University of Pittsburgh—of the Commonwealth System of …, priority 2012, dated 2018).
# How the values were obtained:
# [1] = system: HNSCC patient tumorgrafts; assay: Heterotopic HNSCC patient tumorgrafts in NOD/SCID mice; type: in vivo
# Experimental: FIG. 12A-B. AZD1480 inhibits HNSCC patient tumorgraft growth in conjunction with reduce pSTAT3 expression. (A) Mice bearing heterotropic HNSCC patient tumorgrafts derived from 2 patients (10 mice per group) were treated with AZD1480 (30 mg/kg) or vehicle control, twice daily by oral gavage. Tumor volumes were measures every other day. Statistical difference was determined at the end of the experiment using the Mann-Whitney two-tailed test. (B) Tumors were harvested at the end of treatment, and whole cell lysates were prepared and subjected to immunoblotting with pSTAT3 (Tyr705) and STAT3 antibody. Beta-tubulin was used to assess protein loading. Densitometry was performed and bar graphs illustrate the cumulative findings from each HNSCC tumorgraph experiment.
# In vivo studies have generally relied on xenograft tumors derived from implantation of immortalized HNSCC cell lines into immunocompromised mice. To generate a more clinically relevant platform to assess the antitumor effects of candidate therapies, human tumors were directly inoculated into NOD/SCID mice. To date, implanted tumors from 35 HNSCC patients were obtained according to previously described methods. Twenty-six of these tumors have grown successfully in mice at a median time of 16 weeks (range 6-26 weeks) for a take rate of 74%. […]
# [2] = system: phospho-STAT3 (Tyr705) in UMSCC-1 cells; assay: pSTAT3 (Tyr705) immunoblotting in HNSCC cell line; type: cell-based, human; conditions: increasing concentration, 24 hours, immunoblot
# Experimental: FIG. 13. […] UMSCC-1 cells were treated with increasing concentration of AZD1480. After 24 hours, cells were harvested to obtain cell lysates. Forty micrograms of protein/lane were subjected to electrophoresis and immunoblotted for phosphor-STAT3 (Tyr705) and total STAT3. Beta-tubulin was used as a loading control.
# (§1) The effect of AZD1480 on STAT3 tyrosine phosphorylation and cell growth was further assessed in a panel of HNSCC cell lines.
# 9 HNSC cell lines = assay: Proliferation of a panel of HNSCC cell lines; type: cell-based; conditions: Homo sapiens; range in 9 HNSC cell lines tested; data not shown; read-out: EC50 (inhibition of proliferation)
# Text: as §1
# [3] = system: UM-SCC1 cells expressing mutant PTPRD (P1311T); assay: MTT survival and STAT3 promoter activity in UM-SCC1 cells expressing mutant PTPRD; type: cell-based, human; conditions: PTPRD mutant cells compared with controls
# Experimental: FIG. 14. […] UM-SCC1 cells expressing mutant PTPRD (P1311T) or vector control were treated with AZD1480 (5 μm) or DMSO (vehicle) followed by MTT assay to determine % survival relative to vehicle control. Results are mean±SEM, performed in triplicate.
# as §1
# WT JAK2 = WT JAK2 (Homo sapiens, UniProt O60674); conditions: read-out: enzyme IC50; cited from earlier work
# Chain of WT JAK2 (O60674 whole entry): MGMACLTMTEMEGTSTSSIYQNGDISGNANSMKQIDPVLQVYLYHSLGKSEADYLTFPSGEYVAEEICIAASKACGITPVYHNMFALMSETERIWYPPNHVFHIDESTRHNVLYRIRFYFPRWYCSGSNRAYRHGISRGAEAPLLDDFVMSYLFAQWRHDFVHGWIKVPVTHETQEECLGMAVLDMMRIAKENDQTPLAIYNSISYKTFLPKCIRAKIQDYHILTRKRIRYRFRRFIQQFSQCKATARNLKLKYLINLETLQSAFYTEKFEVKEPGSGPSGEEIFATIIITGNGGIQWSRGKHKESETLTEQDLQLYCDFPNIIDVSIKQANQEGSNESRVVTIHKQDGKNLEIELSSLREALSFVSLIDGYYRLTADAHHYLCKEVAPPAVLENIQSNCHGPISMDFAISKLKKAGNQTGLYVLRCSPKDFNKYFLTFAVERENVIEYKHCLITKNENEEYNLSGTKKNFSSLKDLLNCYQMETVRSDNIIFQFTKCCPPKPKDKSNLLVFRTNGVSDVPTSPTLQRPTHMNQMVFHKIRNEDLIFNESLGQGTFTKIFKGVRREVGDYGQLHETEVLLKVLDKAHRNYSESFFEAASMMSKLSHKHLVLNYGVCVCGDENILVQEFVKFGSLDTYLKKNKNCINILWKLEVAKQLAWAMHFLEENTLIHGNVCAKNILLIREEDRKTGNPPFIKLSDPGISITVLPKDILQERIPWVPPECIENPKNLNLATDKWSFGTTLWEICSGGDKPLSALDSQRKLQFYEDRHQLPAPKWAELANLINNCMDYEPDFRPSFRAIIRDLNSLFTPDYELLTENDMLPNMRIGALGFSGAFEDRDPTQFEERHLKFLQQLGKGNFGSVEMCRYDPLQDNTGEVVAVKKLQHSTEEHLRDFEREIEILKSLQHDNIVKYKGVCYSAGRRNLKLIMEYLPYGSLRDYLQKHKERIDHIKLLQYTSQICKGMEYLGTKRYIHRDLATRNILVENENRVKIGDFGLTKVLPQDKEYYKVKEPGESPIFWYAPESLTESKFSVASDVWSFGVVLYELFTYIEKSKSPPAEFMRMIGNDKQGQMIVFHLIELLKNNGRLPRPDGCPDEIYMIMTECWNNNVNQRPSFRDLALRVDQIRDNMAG
# [4] = system: UM-SCC47 cells expressing the HRAS(Q61K) mutant; assay: Growth inhibition of UM-SCC47 cells expressing HRAS(Q61K); type: cell-based, human; conditions: 250 nM, 24 hours; HRAS(Q61K) vs HRAS WT and EGFP vector control cells, n=4
# Experimental: (A) HRAS wildtype (WT) and HRAS (Q61K) mutant or an EGFP vector control was introduced into the HPV-HSNCC cell line, UM-SCC47, by retroviral infection.
# To test whether increased PI3K signaling can be achieved by mutations in HRAS, a hotspot HRAS mutation found in our HNSCC cohort, HRAS(Q61K), was generated. Experiments were performed to determine the effect this mutation had on PI3K activation and response to PI3K pathway inhibition.
# [5] = system: UMSCC-47 cells expressing PIK3CA (WT) or PIK3CA (E542K) mutant; conditions: 0 to 10 μM, 72 h; PIK3CA WT or E542K expressing cells vs vector control
# Experimental: Retrovirus-infected UMSCC-47 cells expressing control EGFP gene, PIK3CA (WT) or PIK3CA (E542K) mutant were subjected to BEZ-235 (from 0 to 10 μM) treatment for 72 h followed by growth determinations.
# To determine the effects of individual PIK3CA mutations on sensitivity to PI3K pathway inhibitors in HNSCC, we tested the effects of a representative PI3K pathway inhibitor (BEZ-235) in HPV-HNSCC cells engineered to express mutant or WT PIK3CA (E542K) a HNSCC line harboring a PIK3CA mutation.
# [6] = system: PCI-52-SD1 cells expressing PTPRT(R1059L); assay: Growth inhibition of PCI-52-SD1 cells expressing PTPRT(R1059L) by JAK/STAT inhibitor; type: cell-based, human; conditions: 24 hours of treatment; PTPRT(R1059L) cells vs vector control cells, n=4
# Text: FIG. 6. Mutation of PTPRT(R1059L) leads to increased sensitivity to STAT3 inhibition in PCI-52-SD1 cells. PCI-52-SD1 cells were infected with retrovirus expressing the PTPRT(R1059L) mutant gene or PTPRT wildtype (WT) versus vector control (pMXs-EGFP vector).
# Overall, our models can be used to determine if the mutation detected in a human tumor is important for tumor growth and facilitate selection of the appropriate therapeutic agents.
# [7] = system: PE/CA-PJ49 (PTPRD I1821V) versus PE/CAPJ34 (Clone 12) HNSCC cells; assay: MTT assay in HNSCC cell lines with endogenous mutant versus WT PTPRD; type: cell-based, human; conditions: 24 hours, n=3, mutant PTPRD (I1821V) cells vs WT PTPRD cells
# Experimental: To determine if PTPR mutation enhances sensitivity to STAT3 pathway inhibitors, HNSCC cell lines harboring endogenous PTPR mutation were compared with cell lines containing WT PTPRs. Cells were plated at equal density (3×10^4/well), treated with various concentration of the STAT3 inhibitors, Stattic (Sigma-Aldrich, MO), a small molecule inhibitor of STAT3 activation and dimerization, or JSI-124 (Calbiochem, MA) for 24 hours, followed by MTT assay (n=3). EC50 values were determined, with extrapolation at 20 μM, by GraphPad Prism 5 software.
compound,measurement,setting,value
"Cc1cc(Nc2nc(N[C@@H](C)c3ncc(F)cn3)ncc2Cl)n[nH]1 [AZD1480, 5-chloro-N2-[(1S)-1-(5-fluoropyrimidin-2-yl)ethyl]-N4-(5-methyl-1H-pyrazol-3-yl)pyrimidine-2,4-diamine]",antitumor effects (tumorgraft growth),"[1]; heterotopic HNSCC patient tumorgrafts in mice, AZD1480 30 mg/kg twice daily by oral gavage",demonstrated antitumor effects
same,expression of pSTAT3 and STAT3 target genes in tumors,"[1]; heterotopic xenografts from 2 HNSCC human tumors, end of treatment",decreased expression of pSTAT3 and STAT3 target genes
same,pSTAT3 expression,[2],reduced pSTAT3 expression in a dose- and time-dependent manner
same,EC50,9 HNSC cell lines,990 to 3800 nM
same,survival,"[3]; AZD1480 5 μm, MTT",decreased survival
same,STAT3 promoter activity,[3],decreased survival and STAT3 promoter activity
same,IC50,WT JAK2,< 3 nM
Cn1c(=O)n(-c2ccc(C(C)(C)C#N)cc2)c2c3cc(-c4cnc5ccccc5c4)ccc3ncc21 [BEZ-235],sensitivity to growth inhibition,[4],more sensitive to growth inhibition
same,sensitivity to BEZ-235 treatment (growth),[5],more sensitive to BEZ-235 treatment than vector control transfected cells
CC(C)(O)/C=C/C(=O)[C@](C)(O)[C@H]1[C@H](O)C[C@@]2(C)[C@@H]3CC=C4[C@@H](C=C(O)C(=O)C4(C)C)[C@]3(C)C(=O)C[C@]12C [JSI-124],sensitivity to growth inhibition,[6],more sensitive to growth inhibition
same,sensitivity to growth inhibitory effects of STAT3 pathway inhibitors,[7],more sensitive to STAT3 pathways inhibitors
O=[N+]([O-])c1ccc2c(c1)S(=O)(=O)C=C2 [Stattic],sensitivity to growth inhibitory effects of STAT3 pathway inhibitors,[7],more sensitive to the growth inhibitory effects
